Laboratory results: ChEMBL document CHEMBL1147311, “Plant antimutagenic agents, 7. Structure and antimutagenic properties of cymobarbatol and 4-isocymobarbatol, new cymopols from green alga (Cymopolia barbata)” (J Nat Prod, 1989)
Activity calls are given as the source filed them. The rule behind the calls is not given here.

Legend:
Salmonella typhimurium [1] = assay: Toxicity in Salmonella Typhimurium T98 at 75 to 600 ug/plate in presence of histidine; type: organism-based, Salmonella enterica subsp. enterica serovar Typhimurium
Salmonella typhimurium [2] = assay: Toxicity in Salmonella Typhimurium T100 at 75 to 600 ug/plate in presence of histidine; type: organism-based, Salmonella enterica subsp. enterica serovar Typhimurium
Salmonella typhimurium [3] = assay: Antimutagenic activity in Salmonella Typhimurium T100 assessed as inhibition of ethyl methanesulfonate-induced mutation at 32.5 to 300 ug/plate in presence of Ames S9 fractions; type: functional, Salmonella enterica subsp. enterica serovar Typhimurium
Salmonella typhimurium [4] = assay: Toxicity in Salmonella Typhimurium T98 at 75 to 300 ug/plate in presence of histidine; type: organism-based, Salmonella enterica subsp. enterica serovar Typhimurium
Salmonella typhimurium [5] = assay: Toxicity in Salmonella Typhimurium T100 at 75 to 300 ug/plate in presence of histidine; type: organism-based, Salmonella enterica subsp. enterica serovar Typhimurium
Salmonella typhimurium [6] = assay: Antimutagenic activity in Salmonella Typhimurium T98 assessed as inhibition of 2-aminoanthracene-induced mutation at 300 ug/plate; type: functional, organism-based; details: Salmonella enterica subsp. enterica serovar Typhimurium
Salmonella typhimurium [7] = assay: Antimutagenic activity in Salmonella Typhimurium T98 assessed as inhibition of 2-aminoanthracene-induced mutation at 150 ug/plate; type: functional, organism-based; details: Salmonella enterica subsp. enterica serovar Typhimurium
Salmonella typhimurium [8] = assay: Antimutagenic activity in Salmonella Typhimurium T98 assessed as inhibition of 2-aminoanthracene-induced mutation at 75 ug/plate; type: functional, organism-based; details: Salmonella enterica subsp. enterica serovar Typhimurium

CC(C)=CCC/C(C)=C/Cc1cc(O)c(Br)cc1O [CYMOPOL]
Activity (Salmonella typhimurium [1]): Toxic
Activity (Salmonella typhimurium [2]): Toxic

CC1(C)[C@@H](Br)CC[C@@]2(C)Oc3cc(Br)c(O)cc3C[C@@H]12 [CYMOBARBATOL]
inhibition (INH) (Salmonella typhimurium [3]): 80%
Activity (Salmonella typhimurium [4]): Non-toxic
Activity (Salmonella typhimurium [5]): Non-toxic
Activity (Salmonella typhimurium [6]): Active
Activity (Salmonella typhimurium [7]): Active

CC1(C)[C@@H](Br)CC[C@]2(C)Oc3cc(Br)c(O)cc3C[C@@H]12
Activity (Salmonella typhimurium [8]): Active
Activity (Salmonella typhimurium [4]): Non-toxic
Activity (Salmonella typhimurium [5]): Non-toxic
Activity (Salmonella typhimurium [6]): Active
Activity (Salmonella typhimurium [7]): Active
